# In US20240115745A1, “COMPOUNDS COMPRISING A FIBROBLAST ACTIVATION PROTEIN LIGAND AND USE THEREOF” (3B PHARMACEUTICALS GMBH, priority 2021, published 2024):
# Read-outs that look alike come from different tables or passages of the source. *1 amine or outer side, *2 acyl side, *3 side chain or, on linkers, in order; H or OH if unused. Where a SMILES comes first, the peptide text is derived from it. Bridges are numbered along the chain shown (N, C = ends). [ ]: non-standard residue; d: D form. The star is where a group is joined. X4 = O=C(O)CN1CCN(CC(=O)O)CCN(CC(=O)NCCCOCCOCCOCCCN*)CCN(CC(=O)O)CC1; DOTA = O=C(O)CN1CCN(CC(=O)O)CCN(CC(=O)*)CCN(CC(=O)O)CC1; Suc = O=C(CCC(=O)[*:2])[*:1]; β3hK = NCCCC[C@H](N)CC(=O)O; 4Amb = NCc1ccc(C(=O)O)cc1; Nle = CCCC[C@H](N)C(=O)O; Hexanoyl = CCCCCC(=O)*; CO = O=C([*:1])[*:2]; NHBu = CCCCN*
# Tests used:
# [1] = target: T1, FAP-expressing human WI-38 fibroblasts (Homo sapiens, UniProt Q12884); experiment: Competitive FACS binding assay;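 also: flow cytometry read-out of median Cy5 fluorescence on the cells, plotted versus test compound concentration, with IC50 derived by four-parameter logistic curve fitting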
# T1 construct: FAP-expressing human WI-38 fibroblasts (ECACC) were cultured in EMEM; host or cells: WI-38 human fibroblasts
# T1 sequence (Q12884 whole entry): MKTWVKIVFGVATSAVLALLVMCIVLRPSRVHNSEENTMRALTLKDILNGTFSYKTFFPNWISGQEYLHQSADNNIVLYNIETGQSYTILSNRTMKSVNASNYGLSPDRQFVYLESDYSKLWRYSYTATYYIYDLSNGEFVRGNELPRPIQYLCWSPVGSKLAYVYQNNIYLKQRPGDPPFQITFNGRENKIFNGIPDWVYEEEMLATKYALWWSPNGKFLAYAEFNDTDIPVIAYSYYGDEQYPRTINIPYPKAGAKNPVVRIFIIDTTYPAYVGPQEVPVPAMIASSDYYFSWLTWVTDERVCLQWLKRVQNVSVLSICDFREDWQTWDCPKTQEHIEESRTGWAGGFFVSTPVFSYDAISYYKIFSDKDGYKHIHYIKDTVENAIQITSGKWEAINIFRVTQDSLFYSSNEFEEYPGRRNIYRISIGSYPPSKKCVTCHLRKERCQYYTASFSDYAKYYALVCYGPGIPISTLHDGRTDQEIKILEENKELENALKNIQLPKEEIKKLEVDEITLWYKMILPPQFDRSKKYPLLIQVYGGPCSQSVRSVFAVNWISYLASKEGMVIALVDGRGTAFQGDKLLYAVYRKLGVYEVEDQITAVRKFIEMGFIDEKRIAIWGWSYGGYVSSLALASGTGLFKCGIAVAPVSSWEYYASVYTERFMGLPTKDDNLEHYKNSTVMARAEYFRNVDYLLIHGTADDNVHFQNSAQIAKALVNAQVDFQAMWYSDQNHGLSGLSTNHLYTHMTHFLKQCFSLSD
# [2] = target: T2, Recombinant human FAP (Homo sapiens, UniProt Q12884); experiment: FRET-based FAP protease activity assay; type: biochemical
# T2 construct: purchased R&D systems 3715-SE
# T2 sequence (Q12884 26-760 limits assumed): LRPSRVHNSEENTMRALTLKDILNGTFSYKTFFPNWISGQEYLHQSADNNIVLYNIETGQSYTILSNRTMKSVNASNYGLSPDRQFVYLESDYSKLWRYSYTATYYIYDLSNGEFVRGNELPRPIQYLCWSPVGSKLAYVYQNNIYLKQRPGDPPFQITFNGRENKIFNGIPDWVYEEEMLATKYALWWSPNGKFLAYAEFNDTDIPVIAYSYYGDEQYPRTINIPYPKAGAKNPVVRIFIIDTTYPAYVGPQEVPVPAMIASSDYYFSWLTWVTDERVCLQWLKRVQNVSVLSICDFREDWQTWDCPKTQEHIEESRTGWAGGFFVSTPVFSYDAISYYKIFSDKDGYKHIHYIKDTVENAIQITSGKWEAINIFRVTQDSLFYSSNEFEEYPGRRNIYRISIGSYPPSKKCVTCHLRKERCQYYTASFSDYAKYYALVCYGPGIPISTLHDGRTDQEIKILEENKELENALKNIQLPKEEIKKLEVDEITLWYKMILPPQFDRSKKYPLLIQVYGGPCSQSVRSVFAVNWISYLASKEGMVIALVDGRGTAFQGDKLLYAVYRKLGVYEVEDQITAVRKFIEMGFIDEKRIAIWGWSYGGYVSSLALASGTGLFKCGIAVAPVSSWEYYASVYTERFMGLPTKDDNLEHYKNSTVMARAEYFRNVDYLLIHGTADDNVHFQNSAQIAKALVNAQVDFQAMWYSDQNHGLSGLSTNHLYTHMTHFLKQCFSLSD
# [3] = competition with 3 nM Cy5-labeled compound, WI-38 fibroblasts, 4° C., 1 hour, read-out: pIC50 Category (FACS) (converted)
# [4] = recombinant human FAP, FRET-peptide substrate, 37° C., read-out: pIC50 Category (Activity) (converted)
SMILES,"IC50 [1, 3] [nM]","IC50 [2, 4] [nM]","IC50 ([1]; read-out: pIC50 (highest activity categories, FACS binding) (converted)) [nM]","IC50 ([2]; read-out: pIC50 (highest activity categories, FAP activity) (converted)) [nM]"
"CSCC[C@H](N)C(=O)N[C@H]1CSSC[C@@H](C(=O)N[C@@H](CC(=O)O)C(=O)N[C@@H](Cc2c[nH]cn2)C(=O)N[C@@H](Cc2ccccc2)C(=O)N[C@@H](CCCNC(=N)N)C(=O)N[C@@H](CC(=O)O)C(N)=O)NC(=O)[C@H](Cc2ccccc2)NC(=O)[C@H](CCC(=O)O)NC(=O)[C@H]([C@@H](C)O)NC(=O)[C@@H]2CCCN2C(=O)[C@@H]2CCCN2C1=O [Compound 1001, H-Met-[Cys-Pro-Pro-Thr-Glu-Phe-Cys]-Asp-His-Phe-Arg-Asp-NH2] (HELM PEPTIDE1{M.C.P.P.T.E.F.C.D.H.F.R.D.[am]}$PEPTIDE1,PEPTIDE1,2:R3-8:R3$$$V2.0)",< 100,< 100,,
"CCCCCC(=O)N[C@H]1CSSC[C@@H](C(=O)N[C@@H](CC(=O)O)C(=O)N[C@@H](Cc2c[nH]cn2)C(=O)N[C@@H](Cc2ccccc2)C(=O)N[C@@H](CCCNC(=N)N)C(=O)N[C@@H](CC(=O)O)C(N)=O)NC(=O)[C@H](Cc2ccccc2)NC(=O)[C@H](CCC(=O)O)NC(=O)[C@H]([C@@H](C)O)NC(=O)[C@@H]2CCCN2C(=O)[C@@H]2CCCN2C1=O [Compound 1002, Hex-[Cys-Pro-Pro-Thr-Glu-Phe-Cys]-Asp-His-Phe-Arg-Asp-NH2] (HELM PEPTIDE1{[CCCCCC(=O)[*:2]].C.P.P.T.E.F.C.D.H.F.R.D.[am]}$PEPTIDE1,PEPTIDE1,2:R3-8:R3$$$V2.0)",< 100,< 100,,
"CCCC[C@H](NC(=O)CCC(=O)NCCCOCCOCCOCCCNC(=O)CN1CCN(CC(=O)O)CCN(CC(=O)O)CCN(CC(=O)O)CC1)C(=O)N[C@H]1CSSC[C@@H](C(=O)N[C@@H](CC(=O)O)C(N)=O)NC(=O)[C@H](Cc2ccccc2)NC(=O)[C@H](CCC(=O)O)NC(=O)[C@H]([C@@H](C)O)NC(=O)[C@@H]2CCCN2C(=O)[C@@H]2CCCN2C1=O [Compound 1003, DOTA-Ttds-Nle-[Cys-Pro-Pro-Thr-Glu-Phe-Cys]-Asp-NH2] ({X4-Suc}-[Nle]CPPTEFCD-NH2; disulfide 2-8)",< 100,< 100,,
"CCCC[C@H](NC(=O)CN1CCN(CC(=O)O)CCN(CC(=O)O)CCN(CC(=O)O)CC1)C(=O)N[C@H]1CSSC[C@@H](C(=O)N[C@@H](CC(=O)O)C(N)=O)NC(=O)[C@H](Cc2ccccc2)NC(=O)[C@H](CCC(=O)O)NC(=O)[C@H]([C@@H](C)O)NC(=O)[C@@H]2CCCN2C(=O)[C@@H]2CCCN2C1=O [Compound 1004, DOTA-Nle-[Cys-Pro-Pro-Thr-Glu-Phe-Cys]-Asp-NHd2] (HELM PEPTIDE1{[O=C(O)CN1CCN(CC(=O)O)CCN(CC(=O)[*:2])CCN(CC(=O)O)CC1].[Nle].C.P.P.T.E.F.C.D.[am]}$PEPTIDE1,PEPTIDE1,3:R3-9:R3$$$V2.0)",< 100,< 100,,
"CCCC[C@H](NC(=O)COCCOCCNC(=O)CN1CCN(CC(=O)O)CCN(CC(=O)O)CCN(CC(=O)O)CC1)C(=O)N[C@H]1CSSC[C@@H](C(=O)N[C@@H](CC(=O)O)C(=O)N[C@@H](Cc2c[nH]cn2)C(=O)N[C@@H](Cc2ccccc2)C(=O)N[C@@H](CCCNC(=N)N)C(=O)N[C@@H](CC(=O)O)C(N)=O)NC(=O)[C@H](Cc2ccccc2)NC(=O)[C@H](CCC(=O)O)NC(=O)[C@H]([C@@H](C)O)NC(=O)[C@@H]2CCCN2C(=O)[C@@H]2CCCN2C1=O [Compound 1005, DOTA-O2Oc-Nle-[Cys-Pro-Pro-Thr-Glu-Phe-Cys]-Asp-His-Phe-Arg-Asp-NH2] (HELM PEPTIDE1{[O=C(O)CN1CCN(CC(=O)O)CCN(CC(=O)[*:2])CCN(CC(=O)O)CC1].[O=C(COCCOCCN[*:1])[*:2]].[Nle].C.P.P.T.E.F.C.D.H.F.R.D.[am]}$PEPTIDE1,PEPTIDE1,4:R3-10:R3$$$V2.0)",< 100,< 100,< 100,< 100
"CCCC[C@H](NC(=O)CCC(=O)NCCCOCCOCCOCCCNC(=O)CN1CCN(CC(=O)O)CCN(CC(=O)O)CCN(CC(=O)O)CC1)C(=O)N[C@H]1CSSC[C@@H](C(=O)N[C@@H](CC(=O)O)C(=O)N[C@@H](Cc2c[nH]cn2)C(=O)N[C@@H](Cc2ccccc2)C(=O)N[C@@H](CCCNC(=N)N)C(=O)N[C@@H](CC(=O)O)C(N)=O)NC(=O)[C@H](Cc2ccccc2)NC(=O)[C@H](CCC(=O)O)NC(=O)[C@H]([C@@H](C)O)NC(=O)[C@@H]2CCCN2C(=O)[C@@H]2CCCN2C1=O [Compound 1006, DOTA-Ttds-Nle-[Cys-Pro-Pro-Thr-Glu-Phe-Cys]-Asp-His-Phe-Arg-Asp-NH2] ({X4-Suc}-[Nle]CPPTEFCDHFRD-NH2; disulfide 2-8)",< 100,< 100,,
"CCCC[C@H](NC(=O)CCC(=O)NCCCOCCOCCOCCCNC(=O)CN1CCN(CC(=O)O)CCN(CC(=O)O)CCN(CC(=O)O)CC1)C(=O)N[C@H]1CSSC[C@@H](C(=O)N[C@@H](CC(=O)O)C(=O)NCc2ccc(C(=O)N[C@@H](CCCNC(=N)N)C(N)=O)cc2)NC(=O)[C@H](Cc2ccccc2)NC(=O)[C@H](CCC(=O)O)NC(=O)[C@H]([C@@H](C)O)NC(=O)[C@@H]2CCCN2C(=O)[C@@H]2CCCN2C1=O [Compound 1007, DOTA-Ttds-Nle-[Cys-Pro-Pro-Thr-Glu-Phe-Cys]-Asp-Pamb-Arg-NH2] ({X4-Suc}-[Nle]CPPTEFCD[4Amb]R-NH2; disulfide 2-8)",< 100,< 100,,

# Now from value to compound, other results behind:
"IC50 [1, 3] [nM]","IC50 [2, 4] [nM]",SMILES,"IC50 ([1]; read-out: pIC50 (highest activity categories, FACS binding) (converted)) [nM]","IC50 ([2]; read-out: pIC50 (highest activity categories, FAP activity) (converted)) [nM]"
< 100,< 100,"CCCC[C@H](NC(=O)CCC(=O)NCCCOCCOCCOCCCNC(=O)CN1CCN(CC(=O)O)CCN(CC(=O)O)CCN(CC(=O)O)CC1)C(=O)N[C@H]1CSSC[C@@H](C(=O)N[C@@H](CC(=O)O)C(N)=O)NC(=O)[C@H](Cc2ccccc2)NC(=O)[C@H](CCC(N)=O)NC(=O)[C@H]([C@@H](C)O)NC(=O)[C@@H]2CCCN2C(=O)[C@@H]2CCCN2C1=O [Compound 1008, DOTA-Ttds-Nle-[Cys-Pro-Pro-Thr-Gln-Phe-Cys]-Asp-NH2] ({X4-Suc}-[Nle]CPPTQFCD-NH2; disulfide 2-8)",,
< 100,< 100,"CCCC[C@H](NC(=O)CCC(=O)NCCCOCCOCCOCCCNC(=O)CN1CCN(CC(=O)O)CCN(CC(=O)O)CCN(CC(=O)O)CC1)C(=O)N[C@H]1CSSC[C@@H](C(=O)O)NC(=O)[C@H](Cc2ccccc2)NC(=O)[C@H](CCC(N)=O)NC(=O)[C@H]([C@@H](C)O)NC(=O)[C@@H]2CCCN2C(=O)[C@@H]2CCCN2C1=O [Compound 1009, DOTA-Ttds-Nle-[Cys-Pro-Pro-Thr-Gln-Phe-Cys]-OH]",,
< 100,< 100,"CCCC[C@H](NC(=O)CCC(=O)NCCCOCCOCCOCCCNC(=O)CN1CCN(CC(=O)O)CCN(CC(=O)O)CCN(CC(=O)O)CC1)C(=O)N[C@H]1CSSC[C@@H](C(=O)NCCC(=O)O)NC(=O)[C@H](Cc2ccccc2)NC(=O)[C@H](CCC(N)=O)NC(=O)[C@H]([C@@H](C)O)NC(=O)[C@@H]2CCCN2C(=O)[C@@H]2CCCN2C1=O [Compound 1010, DOTA-Ttds-Nle-[Cys-Pro-Pro-Thr-Gln-Phe-Cys]-Bal-OH]",,
< 100,< 100,"CCCCCC(=O)N[C@H]1CSSC[C@@H](C(=O)N[C@@H](CCCCNC(=O)CN2CCN(CC(=O)O)CCN(CC(=O)O)CCN(CC(=O)O)CC2)CC(=O)O)NC(=O)[C@H](Cc2ccccc2)NC(=O)[C@H](CCC(N)=O)NC(=O)[C@H]([C@@H](C)O)NC(=O)[C@@H]2CCCN2C(=O)[C@@H]2CCCN2C1=O [Compound 1011, Hex-[Cys-Pro-Pro-Thr-Gln-Phe-Cys]-Bhk(DOTA)-OH]",,
< 100,< 100,"CCCCCC(=O)N[C@H]1CSSC[C@@H](C(=O)N[C@@H](CCCCNC(=O)CN2CCN(CC(=O)O)CCN(CC(=O)O)CCN(CC(=O)O)CC2)CC(=O)O)NC(=O)[C@H](Cc2ccccc2)NC(=O)[C@H](CCC(=O)O)NC(=O)[C@H]([C@@H](C)O)NC(=O)[C@@H]2CCCN2C(=O)[C@@H]2CCCN2C1=O [Compound 1012, Hex-[Cys-Pro-Pro-Thr-Glu-Phe-Cys]-Bhk(DOTA)-OH] (Hexanoyl-CPPTEFC[β3hK](DOTA)-OH; disulfide 1-7)",,
< 100,< 100,"CCCCCC(=O)N[C@H]1CSSC[C@@H](C(=O)N[C@@H](CC(=O)O)C(=O)N[C@@H](CCCCNC(=O)CN2CCN(CC(=O)O)CCN(CC(=O)O)CCN(CC(=O)O)CC2)C(N)=O)NC(=O)[C@H](Cc2ccccc2)NC(=O)[C@H](CCC(=O)O)NC(=O)[C@H]([C@@H](C)O)NC(=O)[C@@H]2CCCN2C(=O)[C@@H]2CCCN2C1=O [Compound 1013, Hex-[Cys-Pro-Pro-Thr-Glu-Phe-Cys]-Asp-Lys(DOTA)-NH2] (Hexanoyl-CPPTEFCDK(DOTA)-NH2; disulfide 1-7)",,
< 100,< 100,"CCCCNC(=O)N[C@H]1CSSC[C@@H](C(=O)N[C@@H](CCCCNC(=O)CN2CCN(CC(=O)O)CCN(CC(=O)O)CCN(CC(=O)O)CC2)CC(=O)O)NC(=O)[C@H](Cc2ccccc2)NC(=O)[C@H](CCC(=O)O)NC(=O)[C@H]([C@@H](C)O)NC(=O)[C@@H]2CCCN2C(=O)[C@@H]2CCCN2C1=O [Compound 1014, Buur-[Cys-Pro-Pro-Thr-Glu-Phe-Cys]-Bhk(DOTA)-OH] ({NHBu-CO}-CPPTEFC[β3hK](DOTA)-OH; disulfide 1-7)",,
< 100,< 100,"CCCCCC(=O)N[C@H]1CSSC[C@@H](C(=O)N[C@@H](CC(=O)O)C(=O)N[C@@H](CCCCNC(=O)CN2CCN(CC(=O)O)CCN(CC(=O)O)CCN(CC(=O)O)CC2)C(N)=O)NC(=O)[C@H](Cc2ccccc2)NC(=O)[C@H](CCC(N)=O)NC(=O)[C@H]([C@@H](C)O)NC(=O)[C@@H]2CCCN2C(=O)[C@@H]2CCCN2C1=O [Compound 1016, Hex-[Cys-Pro-Pro-Thr-Gln-Phe-Cys]-Asp-Lys(DOTA)-NH2] (Hexanoyl-CPPTQFCDK(DOTA)-NH2; disulfide 1-7)",,
< 100,< 100,"CCCC[C@H](NC(=O)CCC(=O)NCCCOCCOCCOCCCNC(=O)CC[C@H](C(=O)O)N1CCN(CC(=O)O)CCN(CC(=O)O)CC1)C(=O)N[C@H]1CSSC[C@@H](C(=O)NCCC(=O)O)NC(=O)[C@H](Cc2ccccc2)NC(=O)[C@H](CCC(N)=O)NC(=O)[C@H]([C@@H](C)O)NC(=O)[C@@H]2CCCN2C(=O)[C@@H]2CCCN2C1=O [Compound 1018, NODAGA-Ttds-Nle-[Cys-Pro-Pro-Thr-Gln-Phe-Cys]-Bal-OH]",,
